Source: a melting point compilation (Tetko et al.; mined from patent text by program, amines drawn as free bases though some values may be those of a salt)

Row | melting point [°C] | Compound
1 | 137 to 140 | CC(=O)OCCc1cc2c(s1)S(=O)(=O)CCc1cc(=O)n(-c3ccc(Cl)cc3)nc1-2
2 | 307 | O=c1[nH]c2c3ccccc3ccc2n(C2CC2)c1=O
3 | 114 to 116 | CC(C)n1cc(C2CCC3(CC2)OCCO3)c2cc(C#N)ccc21
4 | 156 to 158 | Cc1c(-c2ccnc(-c3ccc4c(n3)CCCC4)n2)ccc2ccccc12
5 | 136 to 138 | Cc1ccc(NC(=O)N2C(=O)C3(CCCCC3)NC23CCCCC3)cc1
6 | 88 to 90 | C=CCOc1cccc(N2C(=O)C3=C(CCCC3)C2=O)c1
7 | 158 to 160 | O=C1N(Cc2ccncn2)c2ccccc2C12COc1cc3c(cc12)CCO3 (stereo unspecified)
8 | 90 to 92 | O=C(c1ccccc1SSc1ccccc1C(=O)N1CCSCC1)N1CCSCC1
9 | 185 to 186 | O=C1CCc2ccc(Oc3ccc(CN4CCN(c5cccc(Cl)c5Cl)CC4)cc3)cc2N1
10 | 41 to 43 | COC1=C(OC)C(=O)OC1=O
11 | 101 to 104 | Nc1ncnc2c1c(-c1ccc(Oc3ccccc3)cc1)cn2[C@H]1CC[C@@H](N2CCCC2)CC1
12 | 238 to 239 | NC(=O)c1cccc([N+](=O)[O-])c1N
13 | 145 to 153 | O=C1C2C3CCC(C4CC43)C2C(=O)N1c1cc(Cl)cc(Cl)c1 (stereo unspecified)
14 | 208 to 209 | CC(C)C1(C)N=C(c2nc3ccc(OC(F)F)cc3cc2C(=O)O)NC1=O (stereo unspecified)
15 | 104 to 105 | COC(=O)Cc1ccc(C(F)(F)F)cc1[N+](=O)[O-]
16 | 146 to 148 | COCC1CN(c2ccc(C3CCC(OC(c4ccccc4)c4ccccc4)CC3)cc2)C(=O)O1 (racemic)
17 | 163 to 165 | CCC(NS(=O)(=O)c1ccc(N2CCOCC2)cc1)C(=O)O (stereo unspecified)
18 | 165 to 167 | CN1C(=O)CCC2(C)c3ccc(S(=O)(=O)c4ccccc4)cc3CCC12 (single isomer, unassigned; (+))
19 | 119 to 122 | CN1C(=O)CCC(C)(C)c2cc(N)ccc21
20 | 55.6 to 56.7 | COC(=O)c1cnc(F)cn1

Row | melting point [°C] | Compound
21 | 51 to 53 | CC(C)(C#N)c1cc(Cn2cncn2)cc(C(C)(C)C(N)=O)c1
22 | 108 to 110 | O=C(c1nc2ccccc2s1)C1CCN(CCc2ccccc2)CC1
23 | 274 to 276 | Nc1c(F)c(N2CCC(n3ccnn3)CC2)c(F)c2c1c(=O)c(C(=O)O)cn2C1CC1
24 | 142 to 143 | CC(C)c1ccc(C(=O)C(c2ccccc2)C2CCCC2)c(C(C)C)c1OS(N)(=O)=O (stereo unspecified)
25 | 144 | CCCc1c(OCCCCCOc2ccc(-c3cc4ccccc4c(=O)o3)cc2CCC(=O)OCC)ccc2c1OCCC2=O
26 | 228 to 229 | O=C(O)CN1C(=O)C2(COc3cc4c(cc32)CCO4)c2c(Cl)cccc21 (stereo unspecified)
27 | 110 | CN(CCOc1ccc(C=CC(=O)N2CCc3c([nH]c4ccccc34)C2c2ccc3c(c2)CCO3)cc1)C(=O)OC(C)(C)C (stereo unspecified)
28 | 285 | O=C(NCCCCN1CCC(c2ccc3c(c2)CCCC3)CC1)c1ccc(NC(=O)c2ccc(Cl)cc2)cc1
29 | 86 to 87 | O=C1C2=C(CCCC2)C(Sc2ccccc2)N1c1ccc(Cl)cc1F (stereo unspecified)
30 | 259 to 262 | CC12CCC(=O)CC1CCC1C2CCC2(C)C(C(N)=O)CCC12 (stereo unspecified)
31 | > 220 | COc1cc2c(cc1C(F)(F)F)N(C(=O)Nc1cccc(C(=O)Nc3cccnc3)c1)CC2
32 | 177 to 181 | CS(=O)(=O)N[C@@H]1CCCC[C@H]1Nc1nc(Nc2cc(F)cc3c2OCCNC3=O)ncc1Cl
33 | 106 to 108 | CCOC(=O)c1ccc2cnccc2n1
34 | 243 to 245 | O=C(Cl)C1CCN(c2cc(-c3ccccc3)nc3ccc(F)cc23)CC1
35 | 92 | CSC(=S)C1(c2cccc(C)n2)SCCCS1
36 | 98 to 100 | CC(=O)N1CCc2ccc(N)cc2C1
37 | 70 to 71 | CNc1nc(Nc2ccc(CCNC(=O)OC(C)(C)C)cc2)ncc1[N+](=O)[O-]
38 | 165 to 166 | CCC1Cc2cc(OC(C)(C)C(=O)O)c(Cl)c(Cl)c2C1=O (stereo unspecified)
39 | 117 | CS(=O)(=O)c1ccc(-c2cc(CCO[N+](=O)[O-])nn2C2CCCCC2)cc1

The remaining lines, values behind:

Row | Compound | melting point [°C]
40 | CS(=O)(=O)c1ccc(-c2cnn(Cc3c(F)c(F)c(F)c(F)c3F)c(=O)c2-c2ccc(F)cc2)cc1 | 115 to 116
41 | CCCCCCCCCCCCSCCO | 31 to 32
42 | CCCCc1ccc(-c2ncc(C#N)c(Cl)n2)cc1 | 107
43 | NS(=O)(=O)c1nc2ccc(OC(=O)Cc3ccc(Cl)cc3)cc2s1 | 206 to 208
44 | O=C(c1ccccc1)c1ccc(OCCCCCCBr)cc1 | 47 to 49
45 | O=C(NO)c1ccc(I)cc1O | 195 to 196
46 | CCOC(=O)c1ccc(NCCCc2c(N(C(C)=O)C(C)=O)nc(NC(C)=O)[nH]c2=O)cc1 | 197 to 198
47 | O=C(O)C1=Cc2cc3c(cc2OC1C(F)(F)F)OCO3 (stereo unspecified) | 246 to 248
48 | COc1cccc2c(COCCC(c3ccccc3)c3ccccc3)coc12 | 147 to 149
49 | O=C(NCCO)c1ccc([N+](=O)[O-])cc1 | 134 to 135
50 | N#CC(=CNc1ccccc1)Cc1ccc2c(c1)OCO2 | 150 to 151
51 | N#Cc1ccc(N(CCCCOc2ccc(OS(N)(=O)=O)cc2)n2cnnc2)cc1 | 164 to 172
52 | NC(=S)NNc1ccc(Cl)cc1 | 200 to 201
53 | Brc1c(NC2=NCCN2)ccc2c1ncn2Cc1ccccc1 | 197 to 198
54 | O=C(O)c1c(F)cc(F)c(F)c1NCc1ccccc1 | 140 to 141
55 | CCCCCCCCCCCCCCCCCCOc1ccc(OCCCc2ccccc2)c(C(=O)N(CC(=O)OCC)CC(=O)OCC)c1 | 54 to 55
56 | CCOC(=O)c1cnc2c(c1)N(Cc1cc(F)ccc1F)CCN2 | 124 to 125
57 | Cc1ccc(-c2c3c(cc4ccc(O)cc24)-c2ccc(O)cc2CO3)cc1C | 218 to 221
58 | Cc1ccc(-c2c(Cl)nc3ncnn3c2Cl)c(F)c1 | 152
59 | COC(=O)c1nc2cc(C(F)(F)F)ccc2c(O)c1C(=O)OC | 210
60 | CCCN1C[C@H]2CCc3cccc(O)c3[C@H]2C1 (relative stereo) | 180 to 184

Row | Compound | melting point [°C]
61 | N#Cc1cccc(Br)c1N | 119 to 120
62 | CCCCCCCCCCCCOc1ccc(-c2ccc(CCCCC(=O)OCC)cc2)cc1 | 99
63 | C[C@@H](n1cnc2cccc(Cl)c2c1=O)[C@](O)(Cn1cncn1)c1ccc(F)cc1F | 114 to 119
64 | O=[N+]([O-])c1cc(C(F)(F)F)ccc1C1(O)CC=NO1 (stereo unspecified) | 122 to 123
65 | O=CN1CCN(c2nn(-c3ccccc3)c3ccccc23)CC1 | 130 to 132
66 | COc1cc(O)c(C=O)cc1OC | 104 to 105
67 | O=[N+]([O-])c1c(Cl)cc(-c2n[nH]cc2Cl)cc1Cl | 177
68 | CCCCCCCCCCCCOC(=O)c1ccc(Cl)c(N)c1 | 58.3 to 59.5
69 | CCCC(=O)c1cnc2cc(Nc3ccc(O)cc3C)sc2c1 | 228 to 230
70 | O=C(O)C1=Cc2cc3occ(-c4ccc(Br)cc4)c3cc2OC1C(F)(F)F (stereo unspecified) | > 250
71 | COc1ccc(C(=O)c2ccccc2C(F)(F)F)c(O)c1Cl | 101 to 102
72 | O=C(Nc1ccc(F)cc1)Nc1cccc(OCc2ccccc2)c1 | 187 to 189
73 | O=C(O)c1cccc2c1oc1ccccc12 | 164 to 165
74 | COCC1CN(c2ccc3nc(C(O)CCCO)sc3c2)C(=O)O1 (stereo unspecified) | 137 to 138
75 | O=C1c2ccccc2C(O)N1CCCOc1ccncc1 (stereo unspecified) | 124 to 125
76 | OCc1csc(N2CCCC2)n1 | 146 to 148
77 | O=S(=O)(c1ccccc1)c1ccc(/C=C/C(O)(C(F)F)C(F)F)cc1 | 123 to 124
78 | COc1cc(OC)c2nccc(Cl)c2c1 | 115 to 116
79 | O=C(O)C(O)c1ccc(-n2cccc2)cc1 (stereo unspecified) | 168
80 | O=C(Nc1ccc2ccccc2c1-c1c(P(=O)(c2ccccc2)c2ccccc2)ccc2ccccc12)c1ccccc1 | 247
81 | CCCCN(CCCC)c1ccc2c(c1)O/C(=C1/Oc3cc(N(CCCC)CCCC)ccc3C1=O)C2=O | 216

Row | Compound | melting point [°C]
82 | CCCc1cc(Cl)c2oc(Cc3ccc(OC)cc3)c(C)c2c1OC(C)=O | 119 to 120
83 | CCc1c(C)c(NC(=O)CC(C)(C)C)c(C)c2c1OCC2c1ccc(C(C)C)cc1 (stereo unspecified) | 135 to 136
84 | CCC(C)(C)c1cc(-c2ccc(C=C3SC(=O)NC3=O)cn2)cc2nc(C)oc12 | 312
85 | O=c1cc(-c2cccnc2)oc2ccccc12 | 123 to 124
86 | COc1c(Nc2ccccc2)ccc2ccccc12 | 43 to 45
87 | O=[N+]([O-])c1ccc(C(F)(F)F)c(Nc2nc3ccccc3o2)c1 | 150 to 152
88 | CC(=O)Nc1ccc(Oc2ccc3nc(COc4ccc(CC5SC(=O)NC5=O)cc4)n(C)c3c2)cc1 (stereo unspecified) | 92.2 to 95
89 | CCc1cc2c(cc1F)c(C#N)c(-c1ccc(S(=O)(=O)N[C@@H](C)C(F)(F)F)cn1)n2-c1ncccn1 | 195 to 198
90 | Cc1ccccc1-c1cccc2c1CNC(=O)N2c1ccccc1 | 236 to 238
91 | CCCCCCCCCCCCCCCC(=O)Nc1cc(C(=O)O)ccc1C | 238 to 240
92 | O=c1cc(-c2nc3ccccc3[nH]2)oc2ccc(Cl)cc12 | 248 to 250
93 | COc1cc(NCCC(=O)O)c(C(C)=O)cc1OC | 150 to 152
94 | Cc1ccc(S(=O)(=O)N2C[C@@H]3C[C@H]2CN3C)cc1 | 87 to 88
95 | CCc1ccc2c3c(ccc2n1)OCC(CN1CC=C(c2c[nH]c4ccccc24)CC1)O3 (stereo unspecified) | 190
96 | O=C(O)CNC(=O)[C@@H](CO)NC(=O)CNC(=O)CSC(=O)c1ccccc1 | 149
97 | NC(=O)N(O)Cc1ccc(Br)cc1 | 157 to 159
98 | CN(C)CCNc1ccc(O)c2c1C(=O)c1c(Cl)ccc(Cl)c1C2=O | 125 to 130
99 | CC(=O)OCC(O)(CN(C)S(=O)(=O)c1ccc(Cl)c(C)c1)c1cccc(Cl)n1 (stereo unspecified) | 92 to 93
100 | O=C1N(Cc2ccccn2)c2ccccc2C12COc1cc3c(c(-c4ccoc4)c12)CCO3 (stereo unspecified) | 195 to 197
101 | C#Cc1ccc(-c2ccccc2F)cc1 | 28.5 to 31
